Assay results published in US11376337B2, “Expression of neuropeptides” (California Institute of Technology, priority 2017, dated 2022).
“Also recorded” adds a separate entry of the source.

Legend:
[1] = literature statement; cited from earlier work
[2] = target: T1, Nk3R (Homo sapiens, UniProt P29371); conditions: trials for schizophrenia, bipolar and panic disorder; cited from earlier work
T1 sequence (P29371 1-465): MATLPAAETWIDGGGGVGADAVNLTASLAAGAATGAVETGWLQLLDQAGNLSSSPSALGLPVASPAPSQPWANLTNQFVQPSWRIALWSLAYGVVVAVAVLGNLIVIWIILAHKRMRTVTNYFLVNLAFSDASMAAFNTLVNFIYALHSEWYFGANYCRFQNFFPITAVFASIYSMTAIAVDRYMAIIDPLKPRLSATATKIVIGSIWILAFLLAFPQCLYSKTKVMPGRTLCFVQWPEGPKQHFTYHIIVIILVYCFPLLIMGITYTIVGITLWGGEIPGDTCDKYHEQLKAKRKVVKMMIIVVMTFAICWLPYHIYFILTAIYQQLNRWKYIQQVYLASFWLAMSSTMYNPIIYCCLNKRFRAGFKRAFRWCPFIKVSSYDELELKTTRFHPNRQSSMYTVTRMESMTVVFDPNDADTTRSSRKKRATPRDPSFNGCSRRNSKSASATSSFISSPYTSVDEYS

[3] = target: T2, Nk3R (Mus musculus, UniProt P47937); test: Social interaction assay, osanetant; conditions: SIS mice; acute systemic osanetant
T2 sequence (P47937 1-452): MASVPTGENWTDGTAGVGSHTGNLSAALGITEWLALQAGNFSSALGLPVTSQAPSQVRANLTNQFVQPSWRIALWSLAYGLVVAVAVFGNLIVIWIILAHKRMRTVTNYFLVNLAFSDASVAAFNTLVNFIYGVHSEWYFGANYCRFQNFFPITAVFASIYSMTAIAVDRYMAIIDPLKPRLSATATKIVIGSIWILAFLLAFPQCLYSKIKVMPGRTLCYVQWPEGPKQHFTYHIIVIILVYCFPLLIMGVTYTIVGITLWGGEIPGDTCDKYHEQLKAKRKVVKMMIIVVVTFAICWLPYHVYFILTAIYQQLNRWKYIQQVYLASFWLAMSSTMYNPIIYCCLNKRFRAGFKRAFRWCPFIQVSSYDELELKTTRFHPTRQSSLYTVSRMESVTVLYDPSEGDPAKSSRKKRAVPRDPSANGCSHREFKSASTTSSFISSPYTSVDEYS

[4] = target: T2, Nk3R; test: Acoustic startle response, osanetant; conditions: SIS mice; acute systemic osanetant
[5] = target: T2, Nk3R; test: Looming disk assay (freezing), osanetant; conditions: for acute (and thereby persistent) freezing to innate threatening stimulus (looming disk): osanetant injection into CeA
[6] = target: T2, Nk3R; test: Resident intruder assay (aggression), osanetant; conditions: for SIS-induced aggression: osanetant microinfusion into DMH
[7] = target: T2, Nk3R; test: Tail rattles during looming disk assay, osanetant; conditions: SIS mice; acute systemic osanetant
[8] = target: T2, Nk3R; test: Tone fear conditioning test (freezing), osanetant; type: in vivo, mice; set-up: endogenous in cells; host or cells: living mice (wild-type C57Bl6/N males, Charles River); systemic i.p. dosing or microinfusion into dBNSTa, DMH, CeA; conditions: for acute (and thereby persistent) freezing to conditioned threatening stimulus (tone): osanetant injection into CeA; for SIS-induced persistent freezing to conditioned tone: osanetant microinfusion into dBNSTa, 375 ng per site, 20 min before test
[9] = target: T2, Nk3R; test: Shock reactivity (footshock), osanetant; type: in vivo, mice; set-up: endogenous in cells; host or cells: living mice (wild-type C57Bl6/N males, Charles River); systemic i.p. dosing or microinfusion into dBNSTa, DMH, CeA
[10] = target: T2, Nk3R; test: Return to housing with pre-isolation cagemates after SIS, osanetant; type: in vivo, mice; set-up: endogenous in cells; host or cells: living mice (wild-type C57Bl6/N males, Charles River); systemic i.p. dosing or microinfusion into dBNSTa, DMH, CeA; conditions: osanetant during SIS; data not shown
[11] = SIS mice, osanetant 5 mg/kg i.p. 20 min prior to assay
[12] = SIS mice, osanetant microinfusion into DMH
[13] = osanetant 5 mg/kg i.p. 20 min prior to assay, during stimulus
[14] = osanetant daily during two-week SIS, tested off-drug
[15] = SIS mice, osanetant injection into CeA
[16] = SIS mice, osanetant microinfusion into dBNSTa

For CC(=O)N(C)C1(c2ccccc2)CCN(CCC[C@]2(c3ccc(Cl)c(Cl)c3)CCCN(C(=O)c3ccccc3)C2)CC1 [osanetant], the “crossing of the blood-brain barrier” value [1] is given as “crosses the blood-brain barrier”, the “efficacy in clinical trials” value [2] is given as “lack of efficacy” and the “tolerability in clinical trials” value [2] is given as “well tolerated”. The “SIS-induced decreased social interaction (time in social zone)” value [3] was “blocked; also recorded: attenuated”, the “SIS-enhanced responding in acoustic startle assay” value [4] was “blocked; also recorded: attenuated” and the “SIS-induced persistent (post) freezing to looming disk” value [5, 11] was “blocked; also recorded: attenuated”. For the same compound, the “acute (and thereby persistent) freezing to innate threatening stimulus (looming disk)” value ([5]; SIS mice) was “reduced”, the “acute (and thereby persistent) freezing to innate threatening stimulus (looming disk)” value ([5]; SIS mice, listed as Osanetant) was “selectively blocked” and the “SIS-induced persistent freezing to looming disk” value ([5]; SIS mice, osanetant microinfusion into ACC) was “failed to yield significant effects; also recorded: No significant effects”. For the same compound, the “persistent responses to looming stimulus” value [5, 12] was “had no effect”, the “SIS-induced persistent freezing to looming disk” value ([5]; SIS mice, osanetant microinfusion into dBNSTa, 375 ng per site, 20 min before test) was “selectively inhibited” and the “SIS-induced persistent freezing to looming disk” value ([5]; SIS mice, osanetant microinfusion into dBNSTa, 375 ng per site, 20 min before test, listed as Osanetant) was “selectively blocked”. For the same compound, the “SIS-induced persistent freezing to looming disk” value ([5]; SIS mice, osanetant microinfusion into striatum) was “failed to yield significant effects; also recorded: No significant effects”, the “freezing during presentation of looming disk” value [5, 13] was “no significant differences” and the “persistent freezing to looming disk” value [5, 14] was “prevented”. The “aggression promoted by sexual experience” value ([6]; 2 weeks co-habitation with a female, no isolation, systemic osanetant) was “had no effect”, the SIS-enhanced aggression [6, 11] was “blocked; also recorded: strongly reduced” and the aggression [6, 15] was “unaffected”. The SIS-induced aggression ([6]; SIS mice) was “abolished”, the SIS-induced aggression ([6]; SIS mice, listed as Osanetant) was “selectively blocked” and the aggression [6, 16] was “no effect”. The SIS-enhanced aggression [6, 14] was “prevented”, the “SIS-induced increased tail rattling” value [7] was “blocked; also recorded: attenuated” and the “SIS-induced persistent (post) freezing to fear-conditioned tone” value [8, 11] was “blocked; also recorded: attenuated”. The “acute (and thereby persistent) freezing to conditioned threatening stimulus (tone)” value ([8]; SIS mice) was “reduced”, the “acute (and thereby persistent) freezing to conditioned threatening stimulus (tone)” value ([8]; SIS mice, listed as Osanetant) was “selectively blocked” and the “persistent responses to conditioned tone” value [8, 12] was “had no effect”. The “SIS-induced persistent freezing to conditioned tone” value ([8]; SIS mice) was “selectively inhibited”, the “SIS-induced persistent freezing to conditioned tone” value ([8]; SIS mice, listed as Osanetant) was “selectively blocked” and the “freezing during presentation of fear-conditioned tone” value [8, 13] was “no significant differences”. For the same compound, the “persistent freezing to fear conditioned tone” value [8, 14] was “prevented”, the “SIS-induced increased shock reactivity” value [9, 11] was “blocked” and the “reactivity to footshock (SIS-enhanced)” value [9, 15] was “reduced; also recorded: blocked”. The responses to footshock [9, 12] was “had no effect”, the shock reactivity [9, 16] was “no effect” and the “SIS-induced increase in shock reactivity” value [9, 14] was “a trend to protection; also recorded: reduced, but not significantly”. The “fighting after return to housing with pre-isolation cagemates” value [10] was “without any subsequent fighting observed”.
